Experimental data taken from the CheMixHub viscosity set.
± gives the uncertainty stated by the source.

Assay: xn = mol fraction of the nth substance listed

OCCO + CN(C)C=O
viscosity (308.15 K, 101 kPa, x1 = 0.6745): 3.878 ± 0.34 mPa·s
viscosity (308.15 K, 101 kPa, x1 = 0.6889): 4.137 ± 0.18 mPa·s
viscosity (308.15 K, 101 kPa, x1 = 0.7677): 5.167 ± 0.44 mPa·s
viscosity (308.15 K, 101 kPa, x1 = 0.783): 5.498 ± 0.23 mPa·s
viscosity (308.15 K, 101 kPa, x1 = 0.8456): 6.582 ± 0.53 mPa·s
viscosity (308.15 K, 101 kPa, x1 = 0.885): 7.454 ± 0.3 mPa·s
viscosity (308.15 K, 101 kPa, x1 = 0.9229): 8.355 ± 0.64 mPa·s
viscosity (308.15 K, 101 kPa, x1 = 0.9484): 9.02 ± 0.35 mPa·s
viscosity (308.15 K, 101 kPa, x1 = 0.968): 10.48 ± 0.4 mPa·s
viscosity (308.15 K, 101 kPa, x2 = 0.0864): 9.133 ± 0.23 mPa·s
viscosity (308.15 K, 101 kPa, x2 = 0.1758): 7.023 ± 0.18 mPa·s
viscosity (308.15 K, 101 kPa, x2 = 0.3623): 4.044 ± 0.1 mPa·s
viscosity (308.15 K, 101 kPa, x2 = 0.5609): 2.289 ± 0.059 mPa·s
viscosity (308.15 K, 101 kPa, x2 = 0.7734): 1.285 ± 0.033 mPa·s
viscosity (308.15 K, 101 kPa, x2 = 0.8848): 0.957 ± 0.025 mPa·s
viscosity (313.15 K, 100 kPa, x1 = 0.1049): 1.08 mPa·s
viscosity (313.15 K, 100 kPa, x1 = 0.2019): 1.28 ± 0.6 mPa·s
viscosity (313.15 K, 100 kPa, x1 = 0.3063): 1.67 ± 0.6 mPa·s
viscosity (313.15 K, 100 kPa, x1 = 0.3993): 2.24 ± 0.6 mPa·s
viscosity (313.15 K, 100 kPa, x1 = 0.4986): 2.82 ± 0.6 mPa·s
viscosity (313.15 K, 100 kPa, x1 = 0.6048): 3.47 ± 0.6 mPa·s
viscosity (313.15 K, 100 kPa, x1 = 0.7069): 4.54 ± 0.6 mPa·s
viscosity (313.15 K, 100 kPa, x1 = 0.8032): 5.68 ± 0.6 mPa·s
viscosity (313.15 K, 100 kPa, x1 = 0.9054): 7.45 ± 0.6 mPa·s
viscosity (313.15 K, 101 kPa, x2 = 0.0864): 7.725 ± 0.2 mPa·s
viscosity (313.15 K, 101 kPa, x2 = 0.1758): 5.998 ± 0.15 mPa·s
viscosity (313.15 K, 101 kPa, x2 = 0.3623): 3.551 ± 0.091 mPa·s
viscosity (313.15 K, 101 kPa, x2 = 0.5609): 2.064 ± 0.053 mPa·s
viscosity (313.15 K, 101 kPa, x2 = 0.7734): 1.185 ± 0.031 mPa·s
viscosity (313.15 K, 101 kPa, x2 = 0.8848): 0.8951 ± 0.023 mPa·s
viscosity (318.15 K, 100 kPa, x1 = 0.1049): 0.96 mPa·s
viscosity (318.15 K, 100 kPa, x1 = 0.2019): 1.21 ± 0.6 mPa·s
viscosity (318.15 K, 100 kPa, x1 = 0.3063): 1.53 ± 0.6 mPa·s
viscosity (318.15 K, 100 kPa, x1 = 0.3993): 2.12 ± 0.6 mPa·s
viscosity (318.15 K, 100 kPa, x1 = 0.4986): 2.43 ± 0.6 mPa·s
viscosity (318.15 K, 100 kPa, x1 = 0.6048): 3.05 ± 0.6 mPa·s
viscosity (318.15 K, 100 kPa, x1 = 0.7069): 3.98 ± 0.6 mPa·s
viscosity (318.15 K, 100 kPa, x1 = 0.8032): 5.04 ± 0.6 mPa·s
viscosity (318.15 K, 100 kPa, x1 = 0.9054): 6.45 ± 0.6 mPa·s
viscosity (318.15 K, 101 kPa, x2 = 0.0864): 6.606 ± 0.17 mPa·s
viscosity (318.15 K, 101 kPa, x2 = 0.1758): 5.171 ± 0.13 mPa·s
viscosity (318.15 K, 101 kPa, x2 = 0.3623): 3.139 ± 0.08 mPa·s
viscosity (318.15 K, 101 kPa, x2 = 0.5609): 1.873 ± 0.048 mPa·s
viscosity (318.15 K, 101 kPa, x2 = 0.7734): 1.096 ± 0.028 mPa·s
viscosity (318.15 K, 101 kPa, x2 = 0.8848): 0.8415 ± 0.022 mPa·s
viscosity (323.15 K, 100 kPa, x1 = 0.1049): 0.87 mPa·s
viscosity (323.15 K, 100 kPa, x1 = 0.2019): 1.08 mPa·s
viscosity (323.15 K, 100 kPa, x1 = 0.3063): 1.38 ± 0.6 mPa·s
viscosity (323.15 K, 100 kPa, x1 = 0.3993): 1.92 ± 0.6 mPa·s
viscosity (323.15 K, 100 kPa, x1 = 0.4986): 2.19 ± 0.6 mPa·s
viscosity (323.15 K, 100 kPa, x1 = 0.6048): 2.8 ± 0.6 mPa·s
viscosity (323.15 K, 100 kPa, x1 = 0.7069): 3.53 ± 0.6 mPa·s
viscosity (323.15 K, 100 kPa, x1 = 0.8032): 4.4 ± 0.6 mPa·s
viscosity (323.15 K, 100 kPa, x1 = 0.9054): 5.59 ± 0.6 mPa·s
viscosity (323.15 K, 101 kPa, x2 = 0.0864): 5.671 ± 0.14 mPa·s
viscosity (323.15 K, 101 kPa, x2 = 0.1758): 4.507 ± 0.12 mPa·s
viscosity (323.15 K, 101 kPa, x2 = 0.3623): 2.789 ± 0.071 mPa·s
viscosity (323.15 K, 101 kPa, x2 = 0.5609): 1.711 ± 0.044 mPa·s
viscosity (323.15 K, 101 kPa, x2 = 0.7734): 1.022 ± 0.027 mPa·s
viscosity (323.15 K, 101 kPa, x2 = 0.8848): 0.7911 ± 0.021 mPa·s
